Assay [1] concerns cortical axons collapses triggered by Sema3A. Briefly: Cortical axons collapses triggered by Sema3A in neocortex explants. Type of assay: cell-based, mouse. Particulars: peptide 10^−8 M, Sema3A 100 ng/ml. As to the method: The inhibitory axon growth property of Sema 3A is supposed to be linked to its induction capacity of growth cone collapses. To investigate the effect of the pTM-NRP1 peptide on the Sema 3A functional properties, the growth of cortical neurons was analyzed in the presence or not of Sema 3A and of pTM-NRP1 or pTM-NRP1^mut (NRP1 TM with a triple G→V mutation) peptides.
Laminine/Poly-L-Lysine substrates have been made by adding 980 μL of Gey's balanced salt solution (GBSS, SIGMA) to 10 μL laminine (1 mg/ml, SIGMA) and to 10 μL poly-L-Lysine (10 mg/ml, SIGMA). Sterile coverslips have been placed in a big dish and added with substrate (100 μL). Then, ‘sandwiches’ have been prepared by covering each coverslip with a second one. After an incubation for at least 30 min at 37° C. under 5% CO2 in air, ‘sandwiches’ have been opened and each coverslip has been rinsed with deionized water. Explants have been cultured on dried coverslips.
Neocortex fragments prepared from E15 mouse embryos (E1 determined as the first day of embryonic development by detection of vaginal plug) have been transferred on a tissue chopper disk. Tissue have been cut into 200×200 μm by rotating the disk by 90° after the first cut. Cortex cubes have been collected with a spatula and put into culture medium in a Petri dish. Two coverslips with substrate have been placed in a small Petri dish (50 mm diameter, FALCON). After adding 750 μl of culture medium, the coverslips should stay in the incubator for at least 10 minutes. Using a dissecting microscope, forty to fifty cortical explants have been collected in 20 μl culture medium and carefully placed onto the coverslips. After 15 min at room temperature, most explants have adhered to their substrate. 2250 μl of culture medium have been slowly added to each dish. Then, explants cultures have been kept at 37° C. under 5% CO2 in air.
A radial outgrowth could be seen after 18-24 h in culture, and individual fibres and growth cones could have therefore been analyzed. Products tested on growth cones have been directly added in culture medium for 2 h: • purified Sema3A (100 ng/ml) prepared from conditioned medium of HEK293 cells stably expressing Sema3A. The purification was performed by using the anti-Flag system, SIGMA) • pTM-NRP1 (10^−8, 10^−9, 10^−10 and 10^−11 M), • 10^−8M mpTM-NRP1, • 10^−8M pTM-ErbB2w (SEQ ID NO. 18).
After incubation, 4% formaldehyde has been directly added in culture medium (v/v) for 15min. Then the solution has been removed and replaced by 4% formaldehyde for 15 min.

Assay [2] relates to COS-1 cells expressing NRP1 and Plexin-A1. Briefly: COS cellular collapses triggered by Sema3A. Format: cell-based. Particulars: peptide 10^−9 M, 1 hour pre-incubation, Sema 3A 4 hours. How it is done:
Nevertheless, the artificial expression of NRP1 and Plexin-A1 in COS cells allows Sema 3A to trigger cellular collapses. To investigate the effect of the pTM-NRP1 peptide on the Sema3A functional properties, the shape of COS cells expressing NRP1 and Plexin-A1 was analyzed in the presence or not of Sema 3A and of pTM-NRP1 or pTM-NRP1^mut peptide.
COS-1 cells have been transfected by 1 μg of pBK-CMV (STRATAGENE) plasmids containing NRP1 and plexin-A1 coding sequences (provided by Pr. PUSCHEL; MUNSTER Universitat, Germany) with LIPOFECTAMINE 2000 (IN VITROGEN) according to the manufacturer's instructions in 6-well plates. Stably COS-1 transfected cells have been selected with 0.7% geneticine. Stably transfected COS-1 cells have been cultured on 12-well plates with previously poly-L-lysine-coated glass coverslips. Cells have been then incubated 1 hour with pTM-NRP1 or pTM-NRP1^mut peptide (10^−9M) at 37° C. The culture medium has been then removed and replaced by conditioned medium of HEK cells stably transfected or not with a construction expressing Sema 3A (100 μl/ml D-MEM) for 4 hours at 37° C. Finally, cells have been fixed with 2% formaldehyde for 30 minutes followed by 15 minutes in formaldehyde 4%. For each condition tested, about 400 cells have been analyzed.

For assay [3], the target named is T1, NRP1 (Homo sapiens, UniProt O14786).
T1 construct: mutations were introduced into the TM domain of a full length NRP1; expressed in transfected cells; host or cells: COS-1 cells, pBK-CMV plasmid (cDNA provided by Pr. Puschel)
T1 sequence (O14786 22-923): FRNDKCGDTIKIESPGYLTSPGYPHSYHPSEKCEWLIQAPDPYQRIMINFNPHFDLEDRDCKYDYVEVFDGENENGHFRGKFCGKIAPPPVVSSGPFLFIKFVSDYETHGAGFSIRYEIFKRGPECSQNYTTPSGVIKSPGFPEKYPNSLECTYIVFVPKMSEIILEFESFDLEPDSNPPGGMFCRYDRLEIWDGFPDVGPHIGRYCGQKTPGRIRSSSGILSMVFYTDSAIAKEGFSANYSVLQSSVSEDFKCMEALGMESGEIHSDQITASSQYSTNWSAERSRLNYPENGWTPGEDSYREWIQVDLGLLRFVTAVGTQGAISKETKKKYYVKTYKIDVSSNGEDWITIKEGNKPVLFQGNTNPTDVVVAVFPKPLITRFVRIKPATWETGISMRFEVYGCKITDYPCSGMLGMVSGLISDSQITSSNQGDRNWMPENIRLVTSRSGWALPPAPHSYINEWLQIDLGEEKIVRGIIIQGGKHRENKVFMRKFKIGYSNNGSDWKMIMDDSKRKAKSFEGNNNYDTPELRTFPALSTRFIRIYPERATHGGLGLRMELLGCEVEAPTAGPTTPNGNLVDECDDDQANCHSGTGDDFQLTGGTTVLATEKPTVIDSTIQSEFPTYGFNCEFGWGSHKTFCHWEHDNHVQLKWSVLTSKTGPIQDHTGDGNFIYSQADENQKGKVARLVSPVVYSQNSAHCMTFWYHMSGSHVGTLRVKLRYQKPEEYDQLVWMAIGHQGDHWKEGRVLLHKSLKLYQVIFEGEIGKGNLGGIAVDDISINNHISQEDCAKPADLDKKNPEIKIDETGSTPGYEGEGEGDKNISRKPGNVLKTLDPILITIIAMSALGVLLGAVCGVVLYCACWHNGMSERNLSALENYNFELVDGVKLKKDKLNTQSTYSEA
Briefly: AP-Sema3A binding to NRP1-expressing COS cells (optical density per cell). Particulars: peptide 10^−9 M, 1 hour pre-incubation. How it is done:
NRP1 expressing COS cells were incubated with AP-Sema3A, a fusion protein of Sema3A and the secreted alkaline phosphatase (BAGNARD et al., 1998).
Wild-type COS cells or NRP1-expressing COS cells (COS-NRP1) were cultured on 12-wells plates on poly-L-lysine-coated glass coverslips (0.005 mg/ml). After one-hour incubation with pTM-NRP1 or pTM-NRP1^mut (10^−9M) in serum-free medium at 37° C., the culture medium was replaced by conditioned medium containing alkaline phosphatase-coupled Sema3A (AP-Sema3A; BAGNARD et al., 1998) obtained from AP-Sema3A stably expressing HEK cells for 90 mn. Conditioned medium without semaphorin served as a control (obtained from non-transfected HEK). Cells were washed three times with PBS and fixed in 4% formaldehyde before transfer in a new dish. After three washes in PBS, the plate was warmed for 50 mn at 65° C. Cells were subsequently incubated with 1 ml of alkaline phosphatase substrate (NBT/BCIP, SIGMA) in the dark. After 45 mn, substrate was removed and glass coverslips were rinsed. Pictures were acquired with a conventional microscope and analyzed with AxioVision LE Zeiss software. For each condition tested, about 60 cells were analyzed to determine binding levels as a function of optical density. Statistical analysis was performed by using a Student's t test.

The target of assay [4] is T2, NRP1 (Rattus norvegicus, UniProt Q9QWJ9).
T2 construct: Rat C6 glioma cells, which express semaphorin receptors; endogenous in cells; host or cells: rat C6 glioma cells
Briefly: AP-Sema3A binding to its receptor NRP1 on C6 glioma cells (luminescence). Particulars: peptide 10^−12 M to 10^−10 M, 1 hour. How it is done:
In order to investigate the NRP1 transmembrane domain role in the linkage NRP1-class III semaphorins, the binding of the ligand Sema3A to its receptor NRP1 on glioma cells was measured in the presence or not of the transmembrane domain peptide of NRP1 (pTM-NRP1 peptide; SEQ ID NO. 1) or of a mutated peptide (mpTM-NRP1; SEQ ID NO. 20, […]). These pTM-NRP1 Peptides have been synthesized by automatic peptidic synthesis (Fmoc chemistry, APPLIED SYSTEM), and analyzed by mass spectrometry. Peptides purity has been estimated by RP-HPLC (BECKMAN) as higher than 90%.
Rat C6 glioma cells, which express semaphorin receptors, has been used to determine the binding capacity of AP-Sema3A, a secreted alkaline phosphatase version of Sema 3A (ADAMS et al., 1997, BAGNARD et al., 1998). These cells were grown and plated in MEM medium (GIBCO) with 10% foetal calf serum (PERBIO), glutamine 0.5 mM (GIBCO) and antibiotics: 100 U/ml penicillin and 100 μg/ml streptomycin (SIGMA).
C6 Cells were cultured in 96-well plates and incubated with or without freshly diluted pTM-NRP1 or pTM-NRP1^mut peptides (10^−12 M to 10^−10 M) for 1 hour at 37° C. The culture medium has been then replaced by conditioned medium of HEK cells stably transfected with a construction expressing AP-Sema 3A (ADAMS et al., EMBO J., vol. 16(20), p: 6077-86, 1997; BAGNARD et al., 1998). Conditioned medium from HEK non transfected cells has been used as an internal control. The pTM-NRP1 Peptide has been synthesized by automatic peptidic synthesis (Fmoc chemistry, APPLIED SYSTEM), and analyzed by mass spectrometry. Peptides purity has been estimated by RP-HPLC (BECKMAN) as higher than 90%, the cells have been washed with PBS and incubated with 50 μl of alkaline phosphatase luminescent substrate (AMERSHAM). The luminescence has been read after 15 minutes with MICROLUMAT PLUS system (BERTHOLD TECHNOLOGIES) according to the manufacturer's instructions. Experiments were done 4 times for each peptide.

The subject of assay [5] is VEGF165 signalling in C6 cells. Briefly: VEGF165-induced migration of C6 tumour cell aggregates in 3D matrix (plasma clot). Format: cell-based. Particulars: VEGF165 50 ng/ml, peptide 10^−8 M. As to the method:
NRP1 is a receptor of VEGF (NEUFELD et al., Adv. Exp. Med. Biol., vol. 515, p: 81-90, 2002). We therefore verified that pTM-NRP1 can antagonize VEGF signalling in C6 cells. To this end, C6 tumour cell aggregates prepared as previously described (see BAGNARD et al., 1998; and NASARRE et al., Neoplasia, vol. 7, p: 180-189, 2005) were grown in the 3D matrix (plasma clot) and treated with VEGF165.

Turning to “SIISAVVGILLVVVLGVVFGILI [ErbB2 peptide, reference compound]”, the “effect on cortical axons collapses triggered by Sema3A” value in assay [1] is “no effect”.
On to “ILITIIAMSALVVLLVAVCVVVLYRKR [pTM-NRP1^mut, reference compound]”, for which, in assay [1], the “effect on cortical axons collapses triggered by Sema3A” value was “did not block”. Also, the “effect on cellular collapses of COS-1 cells triggered by Sema 3A” value in assay [2] is on record as “did not block”. Besides, the “binding of AP-Sema3A to NRP1-expressing COS cells” value on NRP1 [3] is listed as “did not block”. Also, on NRP1 [4], the “binding of AP-Sema3A to its receptor NRP1 on C6 cells” value was “did not block”. Besides, the “VEGF165-dependent C6 cells migration out of aggregates” value in assay [5] is “not able to block”.
